# In article PMC12439166, “Dietary flavonoids form supramolecular assemblies, alter biochemistry, and enhance cell resilience” (Frontiers in Nutrition, 2025):
# How the values were obtained:
# Type in all cases: biochemical
# [1] = biological target: T1, Tyrosine-protein phosphatase non-receptor type 1 (PTP1B) (Homo sapiens, UniProt P18031); experiment: Enzyme activity assay (SAMDI-MS), PTP1B; details: 10 concentrations, 5 nM to 100 μM, compounds incubated with enzyme 30 min, result in words
# T1 sequence (P18031 1-435): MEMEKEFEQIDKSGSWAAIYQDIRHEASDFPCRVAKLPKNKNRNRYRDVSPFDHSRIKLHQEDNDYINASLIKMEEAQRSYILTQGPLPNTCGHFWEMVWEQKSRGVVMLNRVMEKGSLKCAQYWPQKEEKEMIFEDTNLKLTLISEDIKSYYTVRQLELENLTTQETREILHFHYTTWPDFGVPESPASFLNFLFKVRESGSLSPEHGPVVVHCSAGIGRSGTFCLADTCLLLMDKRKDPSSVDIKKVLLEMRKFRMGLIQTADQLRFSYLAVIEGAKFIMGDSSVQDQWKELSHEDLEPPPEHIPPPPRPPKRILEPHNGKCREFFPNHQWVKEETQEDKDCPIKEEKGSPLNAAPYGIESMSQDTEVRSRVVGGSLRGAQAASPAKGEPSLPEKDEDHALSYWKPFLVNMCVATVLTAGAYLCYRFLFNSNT
# Description: (§1) Enzyme screens were performed by SAMDI Tech (contract research organization); enzyme assays were performed in a 20 μL volume in 384-well low-volume polypropylene microtiter plates (Greiner Bio-One) at room temperature. The enzymes [Arginase 1 (ARG1), Lysine demethylase 4C (KDM4C), MAP/microtubule affinity-regulating kinase 4 (MARK4), Histone-Lysine N-methyltransferase (NSD2), Tyrosine-protein phosphatase non-receptor type 1 (PTP1B), and Sirtuin-3 (SIRT3)] were incubated with compounds for 30 min prior to initiation of the reaction by the addition of substrate and cofactors (if required). Reactions were quenched by the addition of 0.5% formic acid (final) with subsequent neutralization using 1% sodium bicarbonate (final). For SAMDI MS analysis, 2 μL of each reaction was transferred using a 384-channel automated liquid handler to SAMDI biochip arrays functionalized with a neutravidin-presenting self-assembled monolayer. The preparation of SAMDI biochip arrays has been previously described ([41], [42], [49]). The SAMDI arrays were incubated for 1 h in a humidified chamber to allow specific immobilization of the biotinylated substrates and products; they were then purified by washing with ultrafiltered water (50 μL/spot) and dried with compressed air. A matrix comprising α-Cyano-4-hydroxycinnamic acid in 80% acetonitrile: 20% aqueous ammonium citrate (10 mg/mL final) was applied in an automated format by dispensing 50 nL to each spot in the array. SAMDI MS was performed using reflector positive mode on an AB Sciex TOF-TOF 5800 System (AB Sciex, Framingham, MA) with 400 shots/spot analyzed in a random raster sampling. For data analysis, the area under the curves (AUCs) for the product peak and substrate peak were calculated using the TOF/TOF Series Explorer (AB Sciex), and the amount of product formed was calculated using the equation AUC product / (AUC product + AUC Substrate). Negative controls were pre-quenched with 0.5% formic acid (final). Lysozyme assay was performed using the manufacturer’s instructions (Biovision Lysozyme inhibitor screening kit K237). Flavonoids were acquired from Sigma-Aldrich and Seleckchem.
# IC50 values of enzyme inhibition. Inhibition of the enzymes was measured at 10 concentration values in the range of 5 nM to 100 μM for each compound and enzyme, with two technical replicates; the percent inhibition values were determined by SAMDI software. Sigmoidal curves were fitted to the percent inhibition vs log10 (concentration) series, and IC50 values were determined at the crossing point of 50 % inhibition. […] First, for each IC50 value per compound and enzyme, a Z-score was calculated based on the log10 (IC50) value and that of the compounds that produced a successful readout for enzyme i , according to Equation 1: […]
# Lysozyme = biological target: T2, Lysozyme (Gallus gallus, UniProt P00698); experiment: Lysozyme assay (Biovision Lysozyme inhibitor screening kit K237); details: 10 concentrations, 5 nM to 100 μM, result in words
# T2 construct: purchased Biovision K237
# Description: as §1
# (§2) IC50 values of enzyme inhibition. Inhibition of the enzymes was measured at 10 concentration values in the range of 5 nM to 100 μM for each compound and enzyme, with two technical replicates; the percent inhibition values were determined by SAMDI software. Sigmoidal curves were fitted to the percent inhibition vs log10 (concentration) series, and IC50 values were determined at the crossing point of 50 % inhibition. Manual verification of the fits and the IC50 values was performed. The resulting IC50 values fell into the following categories: (a) within the assayed range of 5nM to 100μM (26 % of fits), (b) IC50 could be extrapolated, IC50 > 100μM (12 % of fits), or (c) fitting was not possible because all values were at baseline (62 % of fits). Compound efficacy ranking. First, for each IC50 value per compound and enzyme, a Z-score was calculated based on the log10 (IC50) value and that of the compounds that produced a successful readout for enzyme i , according to Equation 1: […]
# [2] = biological target: T3, Lysine demethylase 4C (KDM4C) (Homo sapiens, UniProt Q9H3R0); experiment: Enzyme activity assay (SAMDI-MS), KDM4C; details: 10 concentrations, 5 nM to 100 μM, compounds incubated with enzyme 30 min, result in words
# T3 sequence (Q9H3R0 1-1056): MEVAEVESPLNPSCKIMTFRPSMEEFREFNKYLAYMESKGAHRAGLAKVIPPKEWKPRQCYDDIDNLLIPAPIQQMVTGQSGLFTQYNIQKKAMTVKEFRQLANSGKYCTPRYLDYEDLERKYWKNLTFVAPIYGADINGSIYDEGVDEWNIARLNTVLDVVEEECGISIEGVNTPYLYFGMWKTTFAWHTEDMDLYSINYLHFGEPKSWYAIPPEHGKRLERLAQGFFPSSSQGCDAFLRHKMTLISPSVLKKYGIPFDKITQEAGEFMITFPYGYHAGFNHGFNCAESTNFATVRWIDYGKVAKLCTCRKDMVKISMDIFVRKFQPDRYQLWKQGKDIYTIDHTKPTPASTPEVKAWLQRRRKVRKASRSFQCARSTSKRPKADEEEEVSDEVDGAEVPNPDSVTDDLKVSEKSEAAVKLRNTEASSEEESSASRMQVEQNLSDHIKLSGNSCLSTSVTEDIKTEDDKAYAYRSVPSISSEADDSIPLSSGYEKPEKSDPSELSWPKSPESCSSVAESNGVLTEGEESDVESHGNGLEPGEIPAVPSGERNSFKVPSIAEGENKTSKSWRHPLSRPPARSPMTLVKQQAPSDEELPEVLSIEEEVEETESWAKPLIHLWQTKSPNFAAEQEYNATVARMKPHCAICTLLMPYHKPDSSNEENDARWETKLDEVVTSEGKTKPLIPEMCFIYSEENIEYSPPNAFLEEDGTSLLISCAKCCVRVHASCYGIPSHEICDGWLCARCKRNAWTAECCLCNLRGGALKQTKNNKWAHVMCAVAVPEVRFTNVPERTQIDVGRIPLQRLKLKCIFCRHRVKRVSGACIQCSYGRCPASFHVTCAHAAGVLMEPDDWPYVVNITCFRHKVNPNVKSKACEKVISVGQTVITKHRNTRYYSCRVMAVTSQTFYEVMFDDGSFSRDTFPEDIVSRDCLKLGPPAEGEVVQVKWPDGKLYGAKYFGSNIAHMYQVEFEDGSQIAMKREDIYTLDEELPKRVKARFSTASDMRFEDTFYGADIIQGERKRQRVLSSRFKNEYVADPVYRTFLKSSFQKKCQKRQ
# Description: as §1, §2
# T2 sequence (P00698 19-147): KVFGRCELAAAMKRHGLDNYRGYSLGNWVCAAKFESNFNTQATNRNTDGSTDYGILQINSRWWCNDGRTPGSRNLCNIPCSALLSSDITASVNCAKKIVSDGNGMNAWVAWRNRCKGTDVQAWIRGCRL
Compound,"inhibition of enzyme activity, PTP1B ([1]; listed as Quercetin)","inhibition of enzyme activity, PTP1B ([1]; listed as Quercitin)","inhibition of enzyme activity, Lysozyme (Lysozyme)","inhibition of enzyme activity, Lysozyme (Lysozyme; listed as Quercetin)","inhibition of enzyme activity, Lysozyme (Lysozyme; listed as Quercitin)","inhibition of enzyme activity, KDM4C [2]","inhibition of enzyme activity, KDM4C ([2]; listed as Quercetin)","inhibition of enzyme activity, KDM4C ([2]; listed as Quercitin)","inhibition of enzyme activity, PTP1B [1]"
O=c1c(O)c(-c2ccc(O)c(O)c2)oc2cc(O)cc(O)c12 [quercetin],inhibited,concentration-dependent inhibition,blocked,inhibited,concentration-dependent inhibition,blocked,inhibited,concentration-dependent inhibition,
O=c1c(O[C@@H]2O[C@H](CO)[C@@H](O)[C@H](O)[C@H]2O)c(-c2ccc(O)c(O)c2)oc2cc(O)cc(O)c12 [isoquercitrin],,,blocked,,,blocked,,,not
C[C@@H]1O[C@@H](Oc2c(-c3ccc(O)c(O)c3)oc3cc(O)cc(O)c3c2=O)[C@H](O)[C@H](O)[C@H]1O [quercitrin],,,blocked,,,blocked,,,did not affect
